The text below walks through data of patent US4960765A, “Pharmaceutical composition and method for the treatment of colitis ulcerosa and Crohn's disease by oral administration” (priority 1989, dated 1990).

Molecules are shown by their SMILES. “Also recorded” adds a separate entry of the source. Like-named read-outs stand apart in the source and are kept apart here.

A short description of data set [1]: Ileostomy effluent study (5-ASA / 5-AcASA excretion) in ileostomy patients. The class given is in vivo, human (ileostomy patients). The following applies: for detection in ileostomy secretions: first two hours, 500 mg 5-ASA single oral dose; for excretion rate in ileostomy effluents: following hours up to 8 hours after ingestion. The text has this:
DETERMINATION OF 5-[…] BIOLOGICAL FLUIDS […] ILEOSTOMY PATIENTS Six ileostomy patients colectomized because of colitis ulcerosa with intact small bowel were studied. Their distribution as to sex, age, height, body weight, time since colectomy, small bowel transit time (carmine), and acetylator phenotype (v. Fischer and Klotz, op. cit.) (assessed by sulphadimidine) are shown below in talbe I. ILEOSTOMY PATIENTS […] Ileostomy effluents were collected every hour for eight hours (FIGS. 1+2) urine was collected over an 8 hour period and venous blood was drawn at intervals through the first eight hours (FIGS. 3 and 4).

A short description of data set [2]: Urinary excretion in ileostomy patients. It is filed as in vivo, human (ileostomy patients). Here is the method: DETERMINATION OF 5-[…] BIOLOGICAL FLUIDS […] Six ileostomy patients colectomized because of colitis ulcerosa with intact small bowel were studied. Their distribution as to sex, age, height, body weight, time since colectomy, small bowel transit time (carmine), and acetylator phenotype (v. Fischer and Klotz, op. cit.) (assessed by sulphadimidine) are shown below in talbe I. […] Ileostomy effluents were collected every hour for eight hours (FIGS. 1+2) urine was collected over an 8 hour period and venous blood was drawn at intervals through the first eight hours (FIGS. 3 and 4).

A short description of data set [3]: Plasma concentrations in healthy volunteers. It is filed as in vivo, human (healthy volunteers).
Protocol: (§3) Each subject took two 5-ASA tablets, i.e. 500 mg 5-ASA, three times a day for six days, at 8 a.m., 4 p.m. and at midnight except for the first day, where the two first ingestions took place at 9 a.m. and 5 p.m. […] The two tablets at 8 a.m. were taken by the fasting subject. Venous blood samples for determination of 5-ASA and 5-AsASA were drawn at intevals throughout the first day (FIG. 5) and at 7.50 the following five days(i.e. before the 8 a.m. tablets were ingested) (FIG. 6). Twenty-four hour urine and faecal smaples were collected on the 6th day for quantitative determination of 5-ASA and 5-AcASA. EVery day throughout the study peroid of six days a single faecal sample was analgzed qualitatively for the presence of 5-ASA and 5-AcASA.
Data set [4] is described as follows: Urinary excretion in healthy volunteers. It is filed as in vivo, human (healthy volunteers). An excerpt:
It is the purpose of the clinical studies described below to estimate the bioavailability of a sustained-release type 5-ASA tablet (Pentasea®) of the composition described above in the example by the study of 5-ASA/5-AcASA plasma levels in healthy volunteers as well as the excretion pattern in urine and faces.
(§1) DETERMINATION OF 5-ASA AND 5-AcASA IN BIOLOGICAL FLUIDS
(§2) Procedures for the determination of 5ASA and 5AcASA in ileostomy effluents, feces, urine and blood were based on a newly developed HPLC assay combined with flurescens spectophotometry.
Fourteen healthy persons consented to volunteer. They had no previous or present symptoms or signs of gastrointestinal or other disease apart from uncomplicated appendectomy. There were seven females and seven males. Mean age and age range were for the women 32.4 years and 29-37 years, and for the males 32 years and 24-40 years, respectively. Mean body weight and weight range were for the females 58.6 kg and 53-67 kg, and for the males 70.9 kg and 60-83 kg, respectively. There were eight slow and 6 fast acetylators.
Each subject took two 5-ASA tablets, i.e. 500 mg 5-ASA, three times a day for six days, at 8 a.m., 4 p.m. and at midnight except for the first day, where the two first ingestions took place at 9 a.m. and 5 p.m. The injections are shown by arrows on FIG. 5 and 6. The two tablets at 8 a.m. were taken by the fasting subject. Venous blood samples for determination of 5-ASA and 5-AsASA were drawn at intevals throughout the first day (FIG. 5) and at 7.50 the following five days(i.e. before the 8 a.m. tablets were ingested) (FIG. 6). Twenty-four hour urine and faecal smaples were collected on the 6th day for quantitative determination of 5-ASA and 5-AcASA. EVery day throughout the study peroid of six days a single faecal sample was analgzed qualitatively for the presence of 5-ASA and 5-AcASA.

Data set [5] is described as follows: Faecal excretion and total recovery in healthy volunteers. The class given is in vivo, human (healthy volunteers). Particulars: for daily qualitative faecal analysis: morning samples from day 2 throughout the study.
Protocol: as §3
In data set [6] the test system is colitis ulcerosa. Particulars: cited from earlier work; for therapeutic role on rectal administration: Azad Khan et al.
The conditions of data set [7]: cited from earlier work; for amounts observed in the feces: oral 5-ASA, healthy volunteers.
For data set [8] the following is noted: oral 5-ASA; rats; cited from earlier work.
For data set [9] the following is noted: cited from earlier work.
Data set [10] is described as follows: Plasma concentrations in ileostomy patients. It is filed as in vivo, human (ileostomy patients). Particulars: half an hour after ingestion of 500 mg 5-ASA.
Excerpt: as §1, §2
Six ileostomy patients colectomized because of colitis ulcerosa with intact small bowel were studied. Their distribution as to sex, age, height, body weight, time since colectomy, small bowel transit time (carmine), and acetylator phenotype (v. Fischer and Klotz, op. cit.) (assessed by sulphadimidine) are shown below in talbe I.
A single dose of two tablets of sustained-release 5-ASA i.e. total dose 500 mg, were ingested at 8 a.m. by the fasting patient who thereafter took a normal continental breakfast, lunch at noon, and dinner at 6 p.m. Ileostomy effluents were collected every hour for eight hours (FIGS. 1+2) urine was collected over an 8 hour period and venous blood was drawn at intervals through the first eight hours (FIGS. 3 and 4).

Data set [11] concerns inflamed mucosa in ulcerative colitis. The following applies: enema; compared with 5-ASA; cited from earlier work.
The subject of data set [12] is Crohn's disease. Particulars: cited from earlier work.
For data set [13] the following is noted: cited from earlier work. The source holds these as a separate data set.

Take `Nc1ccc(O)c(C(=O)O)c1` [5-ASA, 5-aminosalicylic acid]: in data set [1] (8 hours, of the 58% collected), the “share of collected portion as 5-ASA still retained in the granules” value is listed as “last third” and the “share of collected portion as free 5-ASA” value is recorded as “one third”. The “detection in ileostomy secretions” value in [1] is recorded as “no 5-ASA or 5-AcASA could be detected”. Further, in data set [1] (500 mg 5-ASA), the “excretion rate in ileostomy effluents” value is listed as “excreted at constant rates”. Moreover, in data set [1] (human, ileostomy effluent, po, 500 mg, one patient, collecting up to 48 hours, read-out: further 5-ASA found on expanded collection), the dose excreted at 48 h stood at 20%. The dose excreted at 8 h in [1] (human, ileostomy effluent, po, 8 hours after ingestion, 500 mg 5-ASA, read-out: ingested total dose collected in the ileostomy bags) worked out at 58%. Also, in data set [1] (human, small bowel, po, 500 mg, composition of the invention, ileostomy patients, read-out: 5-ASA that may be absorbed from the small bowel), the Fa was ≤ 50%. Further, in data set [1] (one patient, collecting up to 48 hours), the “5-ASA retained in the granules” value is listed as “more than one third”. Besides, the “5ASA found in urine” value in data set [2] (500 mg 5-ASA single oral dose) is recorded as “no 5ASA was found except in one case”. The “5-ASA found in urine, one case” value in [2] (one patient, 500 mg 5-ASA) turned out to be 1.4 mg. For the same compound, the concentration at 144 h in [3] (human, plasma, po, day six, all fourteen subjects, 500 mg t.i.d., read-out: total range of 5-ASA plasma concentrations) is 1200 to 2830 ng/mL. Also, in data set [3] (slow and fast acetylators), the “variation according to acetylator phenotype” value was “did not show a significant variation”. Moreover, the “urinary excretion of free 5-ASA” value in [4] (500 mg t.i.d.) is recorded as “could not be recorded”. In addition, in [5] (analysed 24 hours after collection of the faeces), the “faecal content of granules, released and non-released 5-ASA (average total)” value is reported as 5-10%. In addition, the “95% confidence limits of mean faecal excretion of free 5-ASA and 5-AsASA” value in data set [5] (day 6, steady state) is given as 378-650 mg per 24 h. Besides, the “total mean faecal excretion of free 5-ASA and 5-AsASA” value in [5] (day 6, steady state, sum of 5-ASA and 5-AsASA, mean) was 514 mg per 24 h. Further, the recovery in [5] (human, urine and faeces, po, day 6, steady state, daily ingested total dose 1500 mg 5-ASA, read-out: mean recovery rate) amounted to 83%. Also, the “daily qualitative faecal analysis” value in data set [5] is given as “presence”. Besides, the therapeutic effect result in [6] (Azad Khan et al. and van Hees et al.) was “also has therapeutic effect”. The “therapeutic role on rectal administration” value in data set [6] is on record as “therapeutically active moiety; also recorded: exhibits a useful therapeutic activity like SASP”. In addition, in data set [7] (free 5-ASA, oral, healthy subjects), the “absorption from the small bowel” value is given as “absorbed from the small bowel in particular the jejunum; also recorded: essentially completely”. For the same compound, the “amounts observed in the feces” value in data set [7] is “no noticeable amounts”. Besides, in [8], the “absorption from the small bowel” value is “essentially completely” and the “amounts observed in the feces” value is recorded as “no noticeable amounts”. For the same compound, in data set [9] (after SASP), the “absorption from the colon” value is reported as “the major part of the released 5-ASA is not absorbed”. Also, in data set [9] (after SASP, van Hees et al.), the “absorption of 5-ASA from the colon in diarrhoea” value was “drastically decreased”. The serum concentrations result in data set [9] (in vivo, po) is “very low serum concentrations”.
On to `CC(=O)Nc1ccc(O)c(C(=O)O)c1` [5-AcASA, N-acetyl-5-aminosalicylic acid], for which the “share of collected portion as free 5-AsASA” value in data set [1] (8 hours, of the 58% collected) was “another third”. Also, the “detection in ileostomy secretions” value in [1] is given as “no 5-ASA or 5-AcASA could be detected”. Moreover, the “excretion rate in ileostomy effluents” value in [1] (500 mg 5-ASA) is given as “excreted at constant rates”. The “plasma amounts of 5AsASA” value in data set [10] is recorded as “Trace amounts”. For the same compound, the “mean 5-AsASA found in urine” value in [2] (within 8 hours, 500 mg 5-ASA, mean) amounted to 60 mg. In addition, in data set [2] (within 8 hours, 500 mg 5-ASA, range), the “range of 5-AsASA found in urine” value lay in the range of 42 to 82 mg. Moreover, in data set [3] (whole study, 500 mg t.i.d. for six days), the “detection in plasma and urine” value is “only 5AcASA was detected”. Also, the “95% confidence limits of mean urinary 5-AsASA excretion” value in [4] (day 6, steady state) is on record as 587-887 mg per 24 h. Also, the “mean urinary 5-AsASA excretion during 24 h” value in data set [4] (day 6, steady state, 24 h, calculated as 5-ASA, mean) is on record as 737 mg. The “daily qualitative faecal analysis” value in data set [5] is recorded as “presence”. Also, the “effect on the inflamed mucosa in ulcerative colitis” value in [11] is on record as “resembled 5-ASA in its effect on the inflamed mucosa”. Besides, the “amounts observed in the feces” value in data set [7] and in data set [8] was “no noticeable amounts” throughout. The serum concentrations result in data set [9] (after oral administration of 4 g of SASP, Fischer and Klotz) was “very low serum concentrations”.
`Nc1ccc(S(=O)(=O)Nc2ccccn2)cc1` [SP, sulfapyridine]: the “therapeutic role on rectal administration” value in [6] is listed as “only acts as a "carrier"”. Further, the “absorption from the colon” value in data set [9] (after SASP) is on record as “highly absorbed from the colon”.
With `O=C(O)c1cc(/N=N/c2ccc(S(=O)(=O)Nc3ccccn3)cc2)ccc1O` [SASP, salicylazosulfapyridine], in [12] (disease extends to or limited to colon and rectum), the “effectiveness in Crohn's disease of colon and rectum” value is recorded as “proved effective”. For the same compound, the “effectiveness in Crohn's disease limited to the ileum” value in [12] (disease limited to the ileum) was “not proved to be very effective”. Also, the “state on reaching the colon” value in [9] (oral SASP) is recorded as “reaches the colon intact”. Moreover, the “patients allergic to sulfa drugs” value in data set [13] (excludes SASP treatment) is “up to 10%”. Also, the side effects result in data set [13] (in vivo) is “nausea and vomitting, skin rashes, anemia, arthralgias, headache”.
